≈ marks a conversion by molar mass, not a printed value.
Tests used:
Test in all cases: in vitro antibacterial evaluation, MIC by broth dilution
Type in all cases: cell-based
[1] = tested on: Enterococcus sp.; conditions: broth dilution, 18 hours at 35° C.
In short: (§1)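 Broth dilution per NCCLS standard M7-A2 in Muller-Hinton II […], with an inoculum of 5×10^5 CFU/mL and antibiotic spanning 64-0.06 μg/mL. The MIC is the lowest concentration that inhibits growth of the organism.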

[2] = tested on: Staphylococcus sp.; conditions: broth dilution, 18 hours at 35° C.
In short: as §1

[3] = tested on: Streptococcus sp.; conditions: broth dilution, 18 hours at 35° C.
In short: as §1

[4] = tested on: Escherichia coli; conditions: 18 hours at 35° C.

CCCCCNC(=O)OCC1OC(OC2C(CO)OC(Oc3ccc(CC4NC(=O)C(C(C)c5ccccc5)NC(=O)CNC(=O)C(CO)NC(=O)C(C(O)C5CNC(=N)N5C5OC(CO)C(O)C(O)C5O)NC(=O)C(C(O)C5CNC(=N)N5)NC4=O)cc3)C(O)C2O)C(O)C(O)C1O (centres unmarked) [Example 251b]
MIC Enterococcus avium (GC 4558) [1]: 64 mg/L (≈ 45.4 µM) | MIC Enterococcus faecalis (ATCC 29212) [1]: 64 mg/L (≈ 45.4 µM) | MIC Enterococcus faecalis (GC 2242) [1]: 32 mg/L (≈ 22.7 µM) | MIC Enterococcus faecalis (GC 4552) [1]: 64 mg/L (≈ 45.4 µM) | MIC Enterococcus faecalis (GC 4553) [1]: 64 mg/L (≈ 45.4 µM) | MIC Enterococcus faecalis (GC 4554) [1]: 64 mg/L (≈ 45.4 µM) | MIC Enterococcus faecium (GC 2243) [1]: 64 mg/L (≈ 45.4 µM) | MIC Enterococcus faecium (GC 4556) [1]: 64 mg/L (≈ 45.4 µM) | MIC Enterococcus faecium (GC 4557) [1]: 4 mg/L (≈ 2.84 µM) | MIC Enterococcus faecalis (ATCC 29212) ([1]; strain ATCC 29212): 64 mg/L (≈ 45.4 µM) | MIC Enterococcus faecalis (GC 2242) ([1]; strain GC 2242): 32 mg/L (≈ 22.7 µM) | MIC Enterococcus faecium (GC 2243) ([1]; strain GC 2243): 64 mg/L (≈ 45.4 µM) | MIC Enterococcus faecalis (GC 4552) ([1]; strain GC 4552): 64 mg/L (≈ 45.4 µM) | MIC Enterococcus faecalis (GC 4553) ([1]; strain GC 4553): 64 mg/L (≈ 45.4 µM) | MIC Enterococcus faecalis (GC 4554) ([1]; strain GC 4554): 64 mg/L (≈ 45.4 µM) | MIC Enterococcus faecium (GC 4556) ([1]; strain GC 4556): 64 mg/L (≈ 45.4 µM) | MIC Enterococcus faecium (GC 4557) ([1]; strain GC 4557): 4 mg/L (≈ 2.84 µM) | MIC Enterococcus avium (GC 4558) ([1]; strain GC 4558): 64 mg/L (≈ 45.4 µM) | MIC Coagulase Negative Staphylococcus (GC 4547) [2]: 8 mg/L (≈ 5.68 µM) | MIC Coagulase Negative Staphylococcus (GC 4548) [2]: 8 mg/L (≈ 5.68 µM) | MIC Coagulase Negative Staphylococcus (GC 4549) [2]: 4 mg/L (≈ 2.84 µM) | MIC Coagulase Negative Staphylococcus (GC 4551) [2]: 16 mg/L (≈ 11.4 µM) | MIC Coagulase Negative Staphylococcus (ID-3941) [2]: 4 mg/L (≈ 2.84 µM) | MIC Staphylococcus aureus (ATCC 29213) [2]: 16 mg/L (≈ 11.4 µM) | MIC Staphylococcus aureus (GC 1131) [2]: 8 mg/L (≈ 5.68 µM) | MIC Staphylococcus aureus (GC 4541) [2]: 8 mg/L (≈ 5.68 µM) | MIC Staphylococcus aureus (GC 4542) [2]: 8 mg/L (≈ 5.68 µM) | MIC Staphylococcus aureus (GC 4544) [2]: 16 mg/L (≈ 11.4 µM) | MIC Staphylococcus aureus (GC 4545) [2]: 8 mg/L (≈ 5.68 µM) | MIC Staphylococcus aureus-SMITH (GC 4543) [2]: 8 mg/L (≈ 5.68 µM) | MIC Staphylococcus haemolyticus (GC 4546) [2]: 8 mg/L (≈ 5.68 µM) | MIC Staphylococcus aureus (ATCC 29213) ([2]; strain ATCC 29213): 16 mg/L (≈ 11.4 µM) | MIC Staphylococcus aureus (GC 1131) ([2]; strain GC 1131): 8 mg/L (≈ 5.68 µM) | MIC Staphylococcus aureus (GC 4541) ([2]; strain GC 4541): 8 mg/L (≈ 5.68 µM) | MIC Staphylococcus aureus (GC 4542) ([2]; strain GC 4542): 8 mg/L (≈ 5.68 µM) | MIC Staphylococcus aureus-SMITH (GC 4543) ([2]; strain GC 4543): 8 mg/L (≈ 5.68 µM) | MIC Staphylococcus aureus (GC 4544) ([2]; strain GC 4544): 16 mg/L (≈ 11.4 µM) | MIC Staphylococcus aureus (GC 4545) ([2]; strain GC 4545): 8 mg/L (≈ 5.68 µM) | MIC Staphylococcus haemolyticus (GC 4546) ([2]; strain GC 4546): 8 mg/L (≈ 5.68 µM) | MIC Coagulase Negative Staphylococcus (GC 4547) ([2]; strain GC 4547): 8 mg/L (≈ 5.68 µM) | MIC Coagulase Negative Staphylococcus (GC 4548) ([2]; strain GC 4548): 8 mg/L (≈ 5.68 µM) | MIC Coagulase Negative Staphylococcus (GC 4549) ([2]; strain GC 4549): 4 mg/L (≈ 2.84 µM) | MIC Coagulase Negative Staphylococcus (GC 4551) ([2]; strain GC 4551): 16 mg/L (≈ 11.4 µM) | MIC Coagulase Negative Staphylococcus (ID-3941) ([2]; strain ID-3941): 4 mg/L (≈ 2.84 µM) | MIC Streptococcus agalactiae (GC 4564) [3]: 4 mg/L (≈ 2.84 µM) | MIC Streptococcus pneumoniae (GC 4565) [3]: 1 mg/L (≈ 0.71 µM) | MIC Streptococcus pyogenes (ID-3187) [3]: 2 mg/L (≈ 1.42 µM) | MIC Streptococcus agalactiae (GC 4564) ([3]; strain GC 4564): 4 mg/L (≈ 2.84 µM) | MIC Streptococcus pneumoniae (GC 4565) ([3]; strain GC 4565): 1 mg/L (≈ 0.71 µM) | MIC Streptococcus pyogenes (ID-3187) ([3]; strain ID-3187): 2 mg/L (≈ 1.42 µM) | MIC Escherichia coli (ATCC 25922) [4]: >64 mg/L | MIC Escherichia coli (GC 4559) [4]: >64 mg/L | MIC Escherichia coli (GC 4560) [4]: 2 mg/L (≈ 1.42 µM)
